According to patent US8541442B2, “Indole derivatives as anticancer agents” (Janssen Pharmaceutica N.V., priority 2009, dated 2013):
Read-outs that look alike come from different tables or passages of the source.

Columns and labels:
[1] = system: non-small cell lung cancer cell line H1299; assay: Alamar Blue cell proliferation assay, H1299; assay type: cell-based; settings: for H1299 cell proliferation inhibition pIC50: H1299 cells; for IC50: Homo sapiens, NCI-H1299, H1299 cells, read-out: H1299 cell proliferation inhibition pIC50 (converted)
Procedure: (§1) For experiments in 384 wells plates the cells were seeded at a density of 5×10^3 cells/ml in Falcon 384-well culture plates (Life Technologies, Merelbeke, Belgium), black with clear bottom, in 45 μl culture medium. Cells were allowed to adhere to plastic for 24 hr. The tested compound was pre-diluted (1/50 in culture medium) and 5 μl pre-diluted compound was added to the wells. Following 4-day incubation, 10 μl of the Alamar Blue solution was added to each well and the cells were further incubated for 5 hrs (A2780) at 37° C. The fluorescence intensity was measured for each well with a Fluorescence plate reader (Fluorskan, Labsystems, 540 nm excitation and 590 nm emission)
(§2) The antiproliferative activity was calculated as percentage of remaining viable cells in treated versus control (untreated cells) conditions. Within an experiment, the result for each experimental condition is the mean of 3 replicate wells. When appropriate, the experiments were repeated to establish full concentration-response curves. When appropriate, IC50-values (concentration of the drug, needed to reduce cell growth to 50% of the control) were computed using probit analysis for graded data (Finney, D. J., Probit Analyses, 2nd Ed. Chapter 10, Graded Responses, Cambridge University Press, Cambridge 1962). Herein the effects of test compounds are expressed as pIC50 (the negative log value of the IC50-value (M)) (see Table 5A).
Compounds were also tested according to the above protocol but using other cell lines: colorectal cancer cell line HCT116, non-small cell lung cancer cell line H1299, human prostate cancer cell line DU145.

[2] = system: human U87 glioma tumor; assay: In vivo anti tumour effects, U87 glioma xenograft; settings: U87 xenograft in NMRI Nude mice, 20 mg/kg p.o. QD for 5 days; for response vs control in vivo at 20 mg/kg: Mus musculus, U-87 MG, po
Procedure: Immuno-deficient (athymic) male NMRI Nude (Nu/Nu) mice (20-25 g obtained from Janvier, France) were used for these studies. Initial weight was approximately […]. All animals were maintained under SPF “full barrier” conditions with free access to food and water. Mice were group housed under a 12-h light:dark cycle (lights on at 06:00 h) at a temperature of 19 to 22° C. and 35 to 40% humidity in Techniplast type-3 IVC cages. Mice were fed a standard Laboratory chow. All experiments were carried out in accordance with the European Communities Council Directives (86/609/EEC) and had to be approved by the local ethical committee. For an established tumor xenograft model (tumor volume ˜200 mm^3), mice were randomized according to tumor volumes, with 5 mice per treatment group.
The human U87 glioma tumor cell line was derived from a patient. Cells were cultured at 37° C. in a humidified atmosphere (5% CO2, 95% air), in DMEM medium supplemented with 2 mM L-glutamine, 2.0 mM sodium pyruvate, 25 units/ml penicillin/25 μg/ml streptomycin and 10% fetal bovine serum. Cells were maintained as cell monolayer cultures, being passaged twice weekly at 3×10^6 cells per T175 flask using the following procedure. Briefly cells were washed with PBS (without Mg^2+, Ca^2+), before addition of trypsin-EDTA to the culture flasks. After detachment of cells the trypsin-EDTA was inactivated by addition of complete medium. Cell suspension was then transferred to 50 ml Falcon tube and centrifuged for 3 min at 1200 rpm. Medium was aspirated, with the cells being re-suspended in an appropriate volume of complete medium. The cells were counted in a haemocytometer and their viability was assessed by 0.25% trypan blue exclusion. An appropriate volume of cell suspension was then added to either a new T175 culture flask(s) or roller bottle containing fresh medium. For large scale-up growth of U87 tumor cells, an appropriate number of roller bottles were seeded with 0.5 to 1×10^7 cells 1 week prior to inoculation of mice. The medium was changed twice during this period, with the last change being the day prior to cell injection. Cells were collected as described above, with the exception that after centrifugation, the cells were re-suspended in cold (4° C.) serum-free medium. Mice were injected in the inguinal region with 1×10^7 cells total in a 200 μl volume.
Human U87 glioma cells were injected directly into the inguinal region of the male NMRI Nude mice (1×10^7 cells/200 μl/animal) on day 0 (D0). On day 7-10 (can vary due to tumor take/growth between cell batches) when tumor volume had reached an approximate average of 200 mm^3, mice were randomized according to tumor volume, with 5 mice per treatment group. Mice were then treated once daily (QD) with either vehicle (10% HP-β-CD) or vehicle containing test compound (20 mg/kg) by gavage (p.o.) administered in a volume of 10 ml/kg body weight for 5 days. Specific tumor measurements were taken on day 6 (24 hours post 5th dose) and then again on day 10. Tumor re-growth (after dosing has stopped) was monitored so that the time-to-reach a volume of 2000 mm^3 (TTR2000) can be recorded. This gives extra information on the duration of drug action on the tumor growth. In general, tumor size and body weights were measured twice weekly, with mice monitored daily for clinical signs of toxicity for the duration of the treatment. Clinical signs of toxicity included (but not limited to), persistent anorexia or dehydration, posture, moribund, lethargy, hypothermia and/or laboured respiration (according to the UKCCCR guidelines for welfare of animals in experimental neoplasia (The UKCCCR (UK Coordinating Committee on Cancer Research) guidelines for the welfare of animals in experimental neoplasia (July 1997); and Workman, P. et al. UKCCCR guideline. Br. J. Cancer. 1998, 77: 1-10). […]

[3] = system: A2780 ovarian cancer cells; assay: Alamar Blue cell proliferation assay, A2780; assay type: cell-based, human; settings: 4-day incubation; for IC50: Homo sapiens, A2780, 96 h, read-out: A2780 cell proliferation inhibition pIC50 (converted)
Procedure: The human A2780 ovarian cancer cells were a kind gift from Dr. T. C. Hamilton (Fox Chase Cancer Centre, Pennsylvania, U.S.A.). The cells were cultured in RPMI 1640 medium supplemented with 2 mM L-Glutamine, 50 μg/ml gentamicin and 10% fetal calf serum.
Potassium Phosphate Buffer 0.1 M (PPB) was made as follows: 2.72 gram KH2PO4 and 13.86 gram K2HPO4 were dissolved in 500 ml milli-Q H2O, the pH was adjusted to pH 7.4 and the volume was brought to 1 liter with milli-Q H2O; the buffer was filter sterilised and stored at room temperature. Resazurin stock solution (PPB-A) was prepared fresh by dissolving 45 mg resazurin in 15 ml PBS. 30 mM potassium ferricyanide (PPB-B) was prepared by dissolving 0.987 gram potassium ferricyanide in 100 ml PPB. 30 mM potassium ferrocyanide (PPB-C) was prepared by dissolving 1.266 gram potassium ferrocyanide in 100 ml PPB.
Mixture of PPB-A, PPB-B and PPB-C was prepared by mixing equal volumes of the respective solutions. Resazurin work solution (herein termed “Alamar Blue” solution) was prepared by diluting said mixture 20×(vol/vol) in PPB and filter sterilising; the Alamar Blue solution could be kept at 4° C. for a maximum of 2 weeks.
as §1, §2

[4] = day 6 after start dosing, 20 mg/kg
[5] = day 10 after start dosing, 20 mg/kg
[6] = 144 h, day 6 after start dosing, read-out: % T/C day 6
[7] = 240 h, day 10 after start dosing, read-out: % T/C day 10

Row | SMILES | H1299 cell proliferation inhibition pIC50 [1] | % T/C day 6 [2, 4] [%] | % T/C day 10 [2, 5] [%] | A2780 cell proliferation inhibition pIC50 [3] | % T/C day 6 ([2]; day 6 after start dosing) [%] | % T/C day 10 ([2]; day 10 after start dosing) [%] | IC50 [1] [nM] | IC50 [3] [nM] | response vs control in vivo at 20 mg/kg [2, 6] [%] | response vs control in vivo at 20 mg/kg [2, 7] [%]
1 | Cc1cc(Nc2ccnc3c2CCC3O)ccc1NCCc1c[nH]c2c(C(C)O)cccc12 (single isomer, unassigned) [Compound 12] | 5.2 | 64 | 71 | 7.20 | – | – | – | – | – | –
2 | Cc1cc(Nc2ccnc3c2CCC3O)ccc1NCCc1c[nH]c2c(C(C)O)cccc12 (single isomer, unassigned) [Compound 15] | 5.82 | 53 | 88 | 7.27 | – | – | – | – | – | –
3 | Cc1cc(Nc2ccnc3c2CCC3O)ccc1NCCc1c[nH]c2c(CCO)cccc12 (single isomer, unassigned) [Compound 23] | 5.61 | – | – | 6.52 | 72 | 95 | – | – | – | –
4 | COC1CCc2c(Nc3ccc(NCCc4c[nH]c5c(C(C)(C)O)cccc45)cc3)ccnc21 (single isomer, unassigned) [Compound 24] | – | 60 | 1 | – | – | – | 234 | 66.1 | – | –
5 | COC1CCc2c(Nc3ccc(NCCc4c[nH]c5c(C(C)(C)O)cccc45)cc3)ccnc21 (single isomer, unassigned) [Compound 25] | – | 330 | −3 | – | – | – | – | – | – | –
6 | Cc1cc(Nc2ccnc3c2CCC3(C)O)ccc1NCCc1c[nH]c2c(C(C)(C)O)cccc12 (single isomer, unassigned) [Compound 26] | 6.27 | 354 | −11 | 7.11 | – | – | – | – | – | –
7 | Cc1cc(Nc2ccnc3c2CCC3(C)O)ccc1NCCc1c[nH]c2c(C(C)(C)O)cccc12 (single isomer, unassigned) [Compound 27] | – | 193 | 22 | – | – | – | 1020 | 141 | – | –
8 | COC1CCc2c(Nc3ccc(NCCc4c[nH]c5c(C(C)(C)O)cccc45)c(C)c3)ccnc21 (single isomer, unassigned) [Compound 28] | 6.73 | −280 | −10 | 6.89 | – | – | – | – | – | –
9 | COC1CCc2c(Nc3ccc(NCCc4c[nH]c5c(C(C)(C)O)cccc45)c(C)c3)ccnc21 (single isomer, unassigned) [Compound 29] | 6.67 | −196 | −13 | 7.14 | – | – | – | – | – | –
10 | CC(C)(O)c1cccc2c(CCNc3ccc(Nc4ccnc5c4CCC5(C)O)cc3)c[nH]c12 (single isomer, unassigned) [Compound 30] | 6.02 | −61 | −10 | 7.04 | – | – | – | – | – | –
11 | CC(C)(O)c1cccc2c(CCNc3ccc(Nc4ccnc5c4CCC5(C)O)cc3)c[nH]c12 (single isomer, unassigned) [Compound 31] | 5.84 | 179 | 1 | 6.84 | – | – | – | – | – | –
12 | Cc1cc(Nc2ccnc3c2CCC3(C)O)ccc1NCCc1c[nH]c2c(C(C)(C)O)cccc12 (centres unmarked) [Compound 1] | – | – | – | – | – | – | 871 | 115 | 17 | 8
13 | Cc1cc(Nc2ccncc2)ccc1NCCc1c[nH]c2c(C(C)(C)O)cccc12 [Compound 2] | – | – | – | – | – | – | 1150 | 41.7 | 14 | -0.23
14 | Cc1cc(Nc2ccnc3c2CCC3=O)ccc1NCCc1c[nH]c2c(C(C)O)cccc12 (centres unmarked) [Compound 4] | – | – | – | – | – | – | 3720 | 182 | 77 | 129
15 | Cc1cc(Nc2ccnc(CO)c2)ccc1NCCc1c[nH]c2c(C(C)O)cccc12 (centres unmarked) [Compound 5] | – | – | – | – | – | – | 5890 | 52.5 | 103 | 67
16 | OCc1cccc2c(CCNc3ccc(Nc4ccnc5c4CCC5O)cc3)c[nH]c12 (centres unmarked) [Compound 6] | – | – | – | – | – | – | 9330 | 214 | 105 | 99
17 | C=C(C)c1cccc2c(CCNc3ccc(Nc4ccnc5c4CCC5OC)cc3)c[nH]c12 (centres unmarked) [Compound 7] | – | – | – | – | – | – | 407 | 110 | – | –
18 | Cc1cc(Nc2ccnc3c2CCC3O)ccc1NCCc1c[nH]c2c(CCC(C)O)cccc12 (centres unmarked) [Compound 9] | – | – | – | – | – | – | 6760 | 141 | 145 | 113
19 | Cc1cc(Nc2ccnc3c2CCC3(C)O)ccc1NCCc1c[nH]c2c(C(C)O)cccc12 (centres unmarked) [Compound 10] | 5.68 | – | – | 6.70 | 96 | 71 | – | – | – | –
20 | Cc1cc(Nc2ccnc3c2CCC3O)ccc1NCCc1c[nH]c2c(C(C)(C)O)cccc12 (centres unmarked) [Compound 20] | 5.72 | – | – | – | – | – | – | 51.3 | – | –
